Columns and labels:
[1] = system: IL-8; assay: Relative IL-8 mRNA expression in IL-1β-stimulated MKN-45 cells (real-time PCR); type: cell-based, human; conditions: IL-1β-stimulated DMSO-treated cells = 100%, ACTB reference
Method: (§1) RNA was extracted from the cells used in Example 2 according to the manufacturer's protocol for ABI Prism 6100 Nucleic Acid PrepStation (a nucleic acid isolation system, product of Applied Biosystems). More specifically, after removal of the culture supernatant and washing with 1 mL of PBS, 250 μL of Nucleic Acid Purification Lysis Solution (Part No. 4305895, Applied Biosystems) was added, and then agitated using a shaker for 2 to 3 minutes. The Lysis Solution containing the cell lysate was collected, and the total amount was transferred to the wells of RNA Purification Tray (Part No. 4305673, Applied Biosystems), which had been pre-wet with 40 μL of Nucleic Acid Purification Wash Solution I (Part No. 4305891, Applied Biosystems) beforehand. Aspiration (20% pressure) was performed for 2 minutes to adsorb the sample onto the RNA Purification Tray, followed by sequentially adding and aspirating (20% pressure, 2 min.) 500 μL of Wash Solution I, Nucleic Acid Purification (Part No. 4305891, Applied Biosystems), 400 μL of Wash Solution II, Nucleic Acid Purification (Part No. 4305890, product of Applied Biosystems), 400 μL of the Wash Solution II, and 300 μL of the Wash Solution II in that order. Aspiration (90% pressure) was performed for 5 minutes to remove the water content from the RNA Purification Trays. After addition of 150 μL of Elution Solution, Nucleic Acid Purification (Part No. 4305893, product of Applied Biosystems), aspiration (20% pressure) was performed for 2 minutes, while collecting the outflow. This was used as collected RNA solution.
(§2) Absorbance of the collected RNA solution at 260 nm was measured using a microplate spectrophotometer (“SpectraMax Plus”, product of Molecular Devices) with an analysis software (“SOFTmaxPRO ver.3.1.2”, product of Molecular Devices), and the RNA concentration was determined from the absorbance. Likewise, absorbance at 280 nm was measured and the purity of the RNA was determined using the analysis software.
(§3) cDNA was synthesized according to the manufacturer's protocol for TaqMan® Reverse Transcription Reagents (Part No. N808-0234, product of Applied Biosystems). More specifically, about 0.5 μg of RNA, 2.5 μL of 10×RT buffer, 5.5 μL of MgCl2 solution, 5 μL of dNTP mixture, 1.25 μL of random hexamer (primers), 0.5 μL of RNase inhibitor, and 0.63 μL of MultiScribe Reverse Transcriptase (product of Applied Biosystems) were added to each collected RNA sample in a tube, and DEPC-treated water was added to make a total volume of 25 μL and stirred. A reaction consisting of 25° C. for 10 minutes, 48° C. for 30 minutes, and 95° C. for 5 minutes was performed using a PCR thermal cycler (“TaKaRa PCR Thermal Cycler Dice”, product of Takara Bio Inc.) to prepare a cDNA solution.
(§4) PCR was performed according to the manufacturer's protocol for TaqMan® Gene Expression Assays (product of Applied Biosystems). More specifically, 5 μL of TaqMan® Fast Universal PCR Master Mix (product of Applied Biosystems), 0.5 μL of TaqMan® Gene Expression Assays for the target gene (gene-specific probe and primer sets, product of Applied Biosystems), and 4.5 μL of the above-obtained cDNA solution were added to each sample and stirred. A PCR reaction consisting of heating at 95° C. for 20 seconds, followed by 40 cycles consisting of heating at 95° C. for 3 seconds and annealing and extension at 60° C. for 30 seconds was performed using a real-time PCR device (“Applied Biosystems 7500 Real-Time PCR System”) with SDS v1.4 Software (product of Applied Biosystems). Threshold cycle (Ct) values were calculated using the software.
(§5) The Assay IDs of the TaqMan® Gene Expression Assays for the target genes used are as follows:
(§6) The expression level of each gene was determined according to the following formula using the level of ACTB as a reference standard.
(§7) (Relative mRNA expression level)=2̂−{(Ct value of the target gene)−(Ct value of ACTB)} […]

[2] = system: COX2; assay: Relative COX2 mRNA expression in IL-1β-stimulated MKN-45 cells (real-time PCR); type: cell-based, human; conditions: IL-1β-stimulated DMSO-treated cells = 100%, ACTB reference
Method: as §1, §2, §3, §4, §5, §6, §7

Question: `COc1ccc(CC2SC(=S)NC2=O)c2c1N(CCC(C)C)C(=O)CC2` (centres unmarked) [Test Compound 965] was tested. Which “IL-8 relative mRNA expression level, Mean” value [1] did it give?
Answer: 61.2%

Question: And the “COX2 relative mRNA expression level, Mean” value [2]?
Answer: 37.6%
